Test results published in patent US10941157B2, “Pesticidal compositions and uses thereof” (Gilead Apollo, LLC, priority 2015, dated 2021).
Converted amounts (≈) assume the structure as drawn.

Experiments:
Format in all cases: cell-based
Rhizoctonia solani (Rs) = assay: In vitro pathogen growth inhibition assay, Rs (mycelial plugs); settings: Rhizoctonia solani, 48 h, ≥90% inhibition; mycelial plugs; 48 hours vs 2% DMSO control; read-out: Compound Concentration (ppm) sufficient for ≥90% inhibition of growth, Rs
Description: (§1) A growth inhibition assay was conducted to determine the ability of compounds to control the growth of fungal pathogens, such as Botrtyis cinerea (Bc), Collectotrichum graminicola (Cg), Diplodia maydis (Dm), Fusarium moniliforme (Fm), Fusarium virguliforme (Fv), Phytophthora capsici (Pc), Rhizoctonia solani (Rs), and Septoria tritici (St). The compounds listed in Table 1 were each dissolved in DMSO at 2.5 mg/ml to produce compound stock solutions (“stocks”). […] Negative controls on each plate included 2% DMSO, water, and a blank (media+2% DMSO). Fungal spores were isolated from previously sub-cultured plates of Botrtyis cinerea (Bc), Collectotrichum graminicola (Cg), Diplodia maydis (Dm), Fusarium moniliforme (Fm), Fusarium virguliforme (Fv), Phytophthora capsici (Pc), and Septoria tritici (St). The isolated spores were diluted to individual concentrations with a 17% V8 liquid media. For Rhizoctonia solani (Rs), 1.5 mm mycelial plugs were used in place of spores and ¼ Potato Dextrose Broth (PDB) was used for dilution. The spore concentrations and plug sizes were based on growth curves generated at 48 hours for each pathogen. In a second 96-well plate, the spores or mycelial plugs, media, diluted compound solutions, and controls were combined. Once the compound was added, a true final concentration of compound in each well was measured by an OD600 reading, which adjusted for any compound precipitation that might have occurred in the well. Plate readings were repeated at both 24 and 48 hours. The blank negative control was used as a background subtraction. Additional visual ratings were performed at both 24 and 48 hours for checking on precipitation and confirming efficacy. […] Both tables list the concentration of each compound that was sufficient to ≥90% inhibition of growth for each of the fungal pathogens listed above. In addition, some of compounds were tested in a yeast growth inhibition assay for Saccharomyces cerevisiae (Sc). Table 2 lists the concentration of the tested compound that was sufficient to ≥75% inhibition of Saccharomyces cerevisiae (Sc).

[1] = test system: Fusarium virguliforme (Fv); assay: In vitro pathogen growth inhibition assay, Fv; settings: ≥90% inhibition, 48 hours vs 2% DMSO control, read-out: Compound Concentration (ppm) sufficient for ≥90% inhibition of growth, Fv
Description: as §1

Septoria tritici (St) = assay: In vitro pathogen growth inhibition assay, St; settings: Zymoseptoria tritici, 48 h, ≥90% inhibition; 48 hours vs 2% DMSO control; read-out: Compound Concentration (ppm) sufficient for ≥90% inhibition of growth, St
Description: as §1

Botrtyis cinerea (Bc) = assay: In vitro pathogen growth inhibition assay, Bc; settings: 48 h, ≥90% inhibition; 48 hours vs 2% DMSO control; read-out: Compound Concentration (ppm) sufficient for ≥90% inhibition of growth, Bc
Description: as §1

[2] = test system: Collectotrichum graminicola (Cg); assay: In vitro pathogen growth inhibition assay, Cg; settings: 48 h, ≥90% inhibition; 48 hours vs 2% DMSO control; read-out: Compound Concentration (ppm) sufficient for ≥90% inhibition of growth, Cg
Description: as §1

[3] = test system: Fusarium moniliforme (Fm); assay: In vitro pathogen growth inhibition assay, Fm; settings: Fusarium verticillioides; ≥90% inhibition; 48 hours vs 2% DMSO control; read-out: Compound Concentration (ppm) sufficient for ≥90% inhibition of growth, Fm
Description: as §1

Diplodia maydis (Dm) = assay: In vitro pathogen growth inhibition assay, Dm; settings: Stenocarpella maydis, 48 h, ≥90% inhibition; 48 hours vs 2% DMSO control; read-out: Compound Concentration (ppm) sufficient for ≥90% inhibition of growth, Dm
Description: as §1

[4] = test system: Phytophthora capsici (Pc); assay: In vitro pathogen growth inhibition assay, Pc; settings: 48 h, ≥90% inhibition, 48 hours vs 2% DMSO control, read-out: Compound Concentration (ppm) sufficient for ≥90% inhibition of growth, Pc
Description: as §1

Compound | IC90 (Rhizoctonia solani (Rs)) | IC90 [1] | IC90 (Septoria tritici (St)) | IC90 (Botrtyis cinerea (Bc)) | IC90 [2] | IC90 [3] | IC90 (Diplodia maydis (Dm)) | IC90 [4]
COc1ccc(F)cc1[C@H](Cn1c(=O)n(C(C)(C)C(=O)N2CCCCC2)c(=O)c2c(C)c(-n3nccn3)sc21)OC(C)C [Compound I-022] | 0.08 µg/mL (≈ 0.131 µM) | ≥ 0.08 µg/mL | ≥ 2 µg/mL | 0.08 µg/mL (≈ 0.131 µM) | 0.08 µg/mL (≈ 0.131 µM) | 0.08 µg/mL (≈ 0.131 µM) | 0.08 µg/mL (≈ 0.131 µM) | > 50 µg/mL
COc1ccc(F)cc1[C@H](Cn1c(=O)n(C(C)(C)C(=O)N2CCCC2)c(=O)c2c(C)c(-n3nccn3)sc21)OC(C)C [Compound I-023] | 0.08 µg/mL (≈ 0.134 µM) | ≥ 0.08 µg/mL | > 10 µg/mL | 0.4 µg/mL (≈ 0.668 µM) | 0.08 µg/mL (≈ 0.134 µM) | 0.08 µg/mL (≈ 0.134 µM) | 0.08 µg/mL (≈ 0.134 µM) | > 50 µg/mL
COc1ccc(F)cc1[C@H](Cn1c(=O)n(C(C)(C)C(=O)NC(C)C)c(=O)c2c(C)c(-c3ncco3)sc21)OC1CCC(=O)CC1 [Compound I-024] | 0.4 µg/mL (≈ 0.624 µM) | 2 µg/mL (≈ 3.12 µM) | > 50 µg/mL | 0.4 µg/mL (≈ 0.624 µM) | 2 µg/mL (≈ 3.12 µM) | 0.08 µg/mL (≈ 0.125 µM) | ≥ 2 µg/mL | > 50 µg/mL
CCNC(=O)C(C)(C)n1c(=O)c2c(C)c(-n3nccn3)sc2n(C[C@H](OCC(C)C)c2cc(F)ccc2OC)c1=O [Compound I-025] | 0.4 µg/mL (≈ 0.682 µM) | 0.4 µg/mL (≈ 0.682 µM) | > 10 µg/mL | 0.4 µg/mL (≈ 0.682 µM) | 0.4 µg/mL (≈ 0.682 µM) | 0.08 µg/mL (≈ 0.136 µM) | 0.4 µg/mL (≈ 0.682 µM) | > 50 µg/mL
COc1ccc(F)cc1[C@H](Cn1c(=O)n(C(C)(C)C(=O)NC(C)C)c(=O)c2c(C)c(-n3nccn3)sc21)OCC(C)C [Compound I-026] | 0.4 µg/mL (≈ 0.666 µM) | 0.4 µg/mL (≈ 0.666 µM) | ≥ 2 µg/mL | 0.4 µg/mL (≈ 0.666 µM) | 0.08 µg/mL (≈ 0.133 µM) | 0.08 µg/mL (≈ 0.133 µM) | 0.08 µg/mL (≈ 0.133 µM) | > 50 µg/mL
COc1ccc(F)cc1[C@H](Cn1c(=O)n(C(C)(C)C(=O)N2CCCCC2)c(=O)c2c(C)c(-n3nccn3)sc21)OCC(C)C [Compound I-027] | 0.4 µg/mL (≈ 0.638 µM) | 2 µg/mL (≈ 3.19 µM) | > 10 µg/mL | 0.4 µg/mL (≈ 0.638 µM) | 0.4 µg/mL (≈ 0.638 µM) | 0.08 µg/mL (≈ 0.128 µM) | 0.4 µg/mL (≈ 0.638 µM) | > 50 µg/mL
COc1ccc(F)cc1[C@H](Cn1c(=O)n(C(C)(C)C(=O)N2CCCC2)c(=O)c2c(C)c(-n3nccn3)sc21)OCC(C)C [Compound I-028] | 0.08 µg/mL (≈ 0.131 µM) | 0.4 µg/mL (≈ 0.653 µM) | ≥ 2 µg/mL | 0.4 µg/mL (≈ 0.653 µM) | 0.08 µg/mL (≈ 0.131 µM) | 0.08 µg/mL (≈ 0.131 µM) | ≥ 0.08 µg/mL | > 50 µg/mL
COc1ccccc1[C@H](Cn1c(=O)n(C(C)(C)C(=O)NC(C)C)c(=O)c2c(C)c(-n3nccn3)sc21)OC1CCOCC1 [Compound I-029] | 0.4 µg/mL (≈ 0.655 µM) | 0.4 µg/mL (≈ 0.655 µM) | > 10 µg/mL | 0.4 µg/mL (≈ 0.655 µM) | ≥ 2 µg/mL | 0.08 µg/mL (≈ 0.131 µM) | ≥ 2 µg/mL | 50 µg/mL (≈ 81.9 µM)
COc1ccccc1[C@H](Cn1c(=O)n(C(C)(C)C(N)=O)c(=O)c2c(C)c(-n3nccn3)sc21)OC1CCOCC1 [Compound I-031] | 10 µg/mL (≈ 17.6 µM) | 10 µg/mL (≈ 17.6 µM) | > 50 µg/mL | 2 µg/mL (≈ 3.52 µM) | 10 µg/mL (≈ 17.6 µM) | 0.08 µg/mL (≈ 0.141 µM) | 10 µg/mL (≈ 17.6 µM) | > 50 µg/mL
CCNC(=O)C(C)(C)n1c(=O)c2c(C)c(-n3nccn3)sc2n(C[C@H](OC2CCOCC2)c2ccccc2OC)c1=O [Compound I-032] | 10 µg/mL (≈ 16.8 µM) | 10 µg/mL (≈ 16.8 µM) | > 50 µg/mL | 0.4 µg/mL (≈ 0.67 µM) | ≥ 2 µg/mL | 0.08 µg/mL (≈ 0.134 µM) | 10 µg/mL (≈ 16.8 µM) | > 50 µg/mL
COc1ccccc1[C@H](Cn1c(=O)n(C(C)(C)C(=O)N2CCCCC2)c(=O)c2c(C)c(-n3nccn3)sc21)OC1CCOCC1 [Compound I-033] | 0.08 µg/mL (≈ 0.126 µM) | 0.4 µg/mL (≈ 0.628 µM) | > 10 µg/mL | 0.4 µg/mL (≈ 0.628 µM) | ≥ 0.4 µg/mL | 0.08 µg/mL (≈ 0.126 µM) | ≥ 0.4 µg/mL | > 50 µg/mL
COc1ccc(F)cc1[C@H](Cn1c(=O)n(C(C)(C)C(=O)N2CCCCC2)c(=O)c2c(C)c(-n3nccn3)sc21)OC1CCOCC1 [Compound I-036] | 0.08 µg/mL (≈ 0.122 µM) | 0.4 µg/mL (≈ 0.611 µM) | ≥ 2 µg/mL | 0.4 µg/mL (≈ 0.611 µM) | 0.08 µg/mL (≈ 0.122 µM) | 0.08 µg/mL (≈ 0.122 µM) | ≥ 0.08 µg/mL | > 50 µg/mL
COc1ccc(F)cc1[C@H](Cn1c(=O)n(C(C)(C)C(=O)N2CCCC2)c(=O)c2c(C)c(-n3nccn3)sc21)OC1CCOCC1 [Compound I-037] | 0.08 µg/mL (≈ 0.125 µM) | 0.4 µg/mL (≈ 0.624 µM) | ≥ 2 µg/mL | ≥ 0.4 µg/mL | ≥ 0.08 µg/mL | 0.08 µg/mL (≈ 0.125 µM) | ≥ 0.08 µg/mL | 10 µg/mL (≈ 15.6 µM)
COc1ccc(F)cc1[C@H](Cn1c(=O)n(C(C)(C)C(=O)NC2CCC2)c(=O)c2c(C)c(-n3nccn3)sc21)OC1CCOCC1 [Compound I-038] | 0.08 µg/mL (≈ 0.125 µM) | 0.4 µg/mL (≈ 0.624 µM) | ≥ 2 µg/mL | 0.4 µg/mL (≈ 0.624 µM) | 0.4 µg/mL (≈ 0.624 µM) | 0.08 µg/mL (≈ 0.125 µM) | 0.4 µg/mL (≈ 0.624 µM) | 10 µg/mL (≈ 15.6 µM)
COc1ccc(F)cc1[C@H](Cn1c(=O)n(C(C)(C)C(=O)NC2CCCCC2)c(=O)c2c(C)c(-n3nccn3)sc21)OC1CCOCC1 [Compound I-039] | 0.4 µg/mL (≈ 0.598 µM) | 0.4 µg/mL (≈ 0.598 µM) | ≥ 2 µg/mL | 0.4 µg/mL (≈ 0.598 µM) | 2 µg/mL (≈ 2.99 µM) | 0.08 µg/mL (≈ 0.12 µM) | 0.4 µg/mL (≈ 0.598 µM) | > 50 µg/mL
COc1ccc(F)cc1[C@H](Cn1c(=O)n(C(C)(C)C(=O)NCC(C)C)c(=O)c2c(C)c(-n3nccn3)sc21)OC1CCOCC1 [Compound I-040] | 2 µg/mL (≈ 3.11 µM) | 0.4 µg/mL (≈ 0.622 µM) | ≥ 10 µg/mL | 0.4 µg/mL (≈ 0.622 µM) | ≥ 0.4 µg/mL | 0.08 µg/mL (≈ 0.124 µM) | ≥ 0.4 µg/mL | > 50 µg/mL
COc1ccccc1[C@H](Cn1c(=O)n(C(C)(C)C(=O)NCC(C)C)c(=O)c2c(C)c(-n3nccn3)sc21)OC1CCOCC1 [Compound I-041] | 0.08 µg/mL (≈ 0.128 µM) | 2 µg/mL (≈ 3.2 µM) | > 10 µg/mL | 0.4 µg/mL (≈ 0.64 µM) | 2 µg/mL (≈ 3.2 µM) | 0.08 µg/mL (≈ 0.128 µM) | ≥ 2 µg/mL | > 50 µg/mL
